Structures can show the parent of a compound that is named as a salt.
biological target: Syk (356-635 amino acids) catalytic domain (Homo sapiens (Human), UniProt P43405); assay: Inhibition of enzymatic Syk kinase activity (radiometric); assay type: biochemical; conditions: read-out: IC50 Syk
From the text: The objective of this assay was to examine by radiometric method the ability of compounds to inhibit Syk kinase enzyme. Syk is capable of phosphorylating substrates such as VAV, LAT, SLP-76, which in turn activate MAPK, PLCγ signaling pathways. […] This in vitro assay tests the ability of syk to phosphorylate a substrate peptide in the presence of ATP. By using a radio-labeled form of ATP, it is possible to measure the amount of phosphorylation of the substrate. The enzyme transfers a radio-labeled phosphate group from γ32 P labeled ATP to pG4T. Briefly the enzyme was incubated with substrate, radio-labeled & cold ATP and substrate in buffer with or without compounds. At the end of the reaction, the reaction mixture was transferred on to a Multiscreen filter plate and unreacted γ^32P ATP was washed off. The filter plate was dried and the radioactivity was measured on a scintillation counter to estimate the incorporated radioactivity on the substrate. The percent inhibition of activity of the enzyme was calculated by comparing counts in the presence and absence of compounds. […] 2.5 μL of 10% DMSO or compound in 10% DMSO was added to the wells in a 96 well V-bottom plate. Optimized concentration of in-house Syk enzyme (different batches of Syk (356-635) kinase domain) were used at optimized concentrations) ranging from 0.035 ng to 7.5 ng/reaction diluted in assay buffer was added to a total volume of 12.5 μL). Compound and protein were incubated for 30 minutes at room temperature on a plate shaker. Ten μL of a substrate mix containing 100 μM ATP (0.25 μL), γ-P^32-ATP (0.1 μL; 10 μCi/μL), pG4T (0.25 μL; 10 mg/mL) and 1× assay buffer (9.4 μL) was added to all the wells. Samples were incubated at 30° C. for 10 minutes after mixing. The reaction was stopped by the addition of 8N HCl (13 μL) containing 100 mM ATP. Thirty μL of sample was transferred to the center of a 2×2 cm^2 Whatman® P81 chromatography paper. After allowing the sample to dry for one minute, the assay squares were washed 3 times for 5 minutes each in ortho-phosphoric acid (0.5%) and once in acetone. Assay squares were dried for 15 minutes in a 30° C. oven and transferred to 96 well optiplate. Microscint-O® reagent (100 μL, Perkin Elmer) was added to each well, the plate was sealed with Topseal®-A microplates and incubated for 10 minutes at room temperature at very low speed on rocker and the plate was read in the Topcount® NXL instrument. The following calculations were made: Fold induction=radioactivity counts (uncorrected values) in positive control/substrate control.

COC(=O)c1ccc(-c2nc(Nc3ccc(CN4CCNCC4)cc3)c3c(=O)[nH]ncc3n2)cc1 [Example 2, Methyl 4-(5-oxo-4-(4-(piperazin-1-ylmethyl)phenylamino)-5,6-dihydropyrimido[4,5-d]pyridazin-2-yl)benzoate hydrochloride] was tested. Which IC50 did it give?
Its IC50 is less than 0.1 µM.

With O=c1[nH]ncc2nc(N3CCOCC3)nc(Nc3ccc(CN4CCNCC4)cc3)c12 [Example 3, 2-morpholino-4-(4-(piperazin-1-ylmethyl)phenylamino)pyrimido[4,5-d]pyridazin-5(6H)-one hydrochloride] as the compound, how does the IC50 read?
Its IC50 is greater than 0.1 µM.

With O=c1[nH]ncc2nc(-c3ccccc3)nc(Nc3ccc(CN4CCOCC4)cc3)c12 [Example 4, 4-(4-(morpholinomethyl)phenylamino)-2-phenylpyrimido[4,5-d]pyridazin-5(6H)-one] as the compound, how does the IC50 read?
The IC50 was less than 0.1 µM.

With O=C(O)CN1CCN(c2ccc(Nc3nc(-c4ccccc4)nc4cn[nH]c(=O)c34)cc2)CC1 [Example 12, 2-(4-(4-(5-oxo-2-phenyl-5,6-dihydropyrimido[4,5-d]pyridazin-4-ylamino)phenyl)piperazin-1-yl) acetic acid] as the compound, how does the IC50 read?
Its IC50 is less than 0.05 µM.

Which IC50 does the source give for O=c1[nH]ncc2nc(N3CCC4(CC3)CC4)nc(Nc3ccc(N4CCOCC4)cc3)c12 [Example 18, 4-(4-morpholinophenylamino)-2-(6-azaspiro[2.5]octan-6-yl)pyrimido[4,5-d]pyridazin-5(6H)-one] here?
The IC50 was greater than 0.1 µM.

For O=c1[nH]ncc2nc(N3CCCCCC3)nc(Nc3ccc(N4CCC(F)(F)CC4)cc3)c12 [Example 279, 2-(azepan-1-yl)-4-((4-(4,4-difluoropiperidin-1-yl)phenyl)amino) pyrimido[4,5-d]pyridazin-5(6H)-one], which IC50 is on record?
The IC50 was greater than 0.1 µM.

With O=c1[nH]ncc2nc(N3CCCCCC3)nc(Nc3ccc(OCCCO)cc3)c12 [Example 296, 2-(azepan-1-yl)-4-((4-(3-hydroxypropoxy)phenyl)amino)pyrimido[4,5-d]pyridazin-5(6H)-one] as the compound, how does the IC50 read?
Its IC50 is less than 0.1 µM.

Which IC50 does the source give for O=c1[nH]ncc2nc(N3CCCCCC3)nc(Nc3ccc(N4CCC(CCF)CC4)cc3)c12 [Example 298, 2-(azepan-1-yl)-4-((4-(4-(2-fluoroethyl)piperidin-1-yl)phenyl)amino) pyrimido[4,5-d]pyridazin-5-(6H)-one] here?
The IC50 was greater than 0.1 µM.

With COc1cc(Nc2nc(N3CCC(CC#N)CC3)nc3cn[nH]c(=O)c23)cc(OC)c1 [Example 300, 2-(1-(4-((3,5-dimethoxyphenyl)amino)-5-oxo-5,6-dihydropyrimido[4,5-d]pyridazin-2-yl)piperidin-4-yl)acetonitrile] as the compound, how does the IC50 read?
Its IC50 is greater than 0.1 µM.

For N#CCC1CCN(c2nc(Nc3ccc(OC(F)(F)F)cc3)c3c(=O)[nH]ncc3n2)CC1 [Example 301, 2-(1-(5-oxo-4-((4-(trifluoromethoxy)phenyl)amino)-5,6-dihydropyrimido[4,5-d]pyridazin-2-yl)piperidin-4-yl) acetonitrile], which IC50 is on record?
Its IC50 is greater than 0.1 µM.

Which IC50 does the source give for O=c1[nH]ncc2nc(N3CCCCCC3)nc(Nc3ccc(OC(F)(F)F)cc3)c12 [Example 303, 2-(azepan-1-yl)-4-((4-(trifluoromethoxy)phenyl)amino)pyrimido[4,5-d]pyridazin-5(6H)-one] here?
Its IC50 is greater than 0.1 µM.

How did the IC50 turn out when O=c1[nH]ncc2nc(N3CCCCCC3)nc(Nc3cccc(CO)c3)c12 [Example 310, 2-(azepan-1-yl)-4-((3-(hydroxymethyl)phenyl)amino)pyrimido[4,5-d]pyridazin-5(6H)-one] was run?
The IC50 was greater than 0.1 µM.

N#CCC1CCN(c2nc(Nc3cccc(CO)c3)c3c(=O)[nH]ncc3n2)CC1 [Example 311, 2-(1-(4-((3-(hydroxymethyl)phenyl)amino)-5-oxo-5,6-dihydropyrimido[4,5-d]pyridazin-2-yl)piperidin-4-yl) acetonitrile] was tested. Which IC50 did it give?
Its IC50 is greater than 0.1 µM.

Which IC50 does the source give for O=c1[nH]ncc2nc(N3CCCCCC3)nc(Nc3ccc(F)cc3)c12 [Example 313, 2-(azepan-1-yl)-4-((4-fluorophenyl)amino)pyrimido[4,5-d]pyridazin-5(6H)-one] here?
Its IC50 is greater than 0.1 µM.

For CC(C)(Oc1ccc(Nc2nc(N3CCC(CC#N)CC3)nc3cn[nH]c(=O)c23)cc1)C(=O)O [Example 317, 2-(4-((2-(4-(cyanomethyl)piperidin-1-yl)-5-oxo-5,6-dihydropyrimido[4,5-d]pyridazin-4-yl)amino)phenoxy)-2-methylpropanoic acid], which IC50 is on record?
Its IC50 is greater than 0.1 µM.

With COc1ccc(Nc2nc(N3CCCCCC3)nc3cn[nH]c(=O)c23)cc1OC [Example 318, 2-(azepan-1-yl)-4-((3,4-dimethoxyphenyl)amino)pyrimido[4,5-d]pyridazin-5(6H)-one] as the compound, how does the IC50 read?
The IC50 was greater than 0.1 µM.

Which IC50 does the source give for COc1ccc(Nc2nc(N3CCC(CC#N)CC3)nc3cn[nH]c(=O)c23)cc1OC [Example 319, 2-(1-(4-((3,4-dimethoxyphenyl)amino)-5-oxo-5,6-dihydropyrimido[4,5-d]pyridazin-2-yl)piperidin-4-yl)acetonitrile] here?
Its IC50 is greater than 0.1 µM.

COc1cccc(Nc2nc(N3CCCCCC3)nc3cn[nH]c(=O)c23)c1 [Example 320, 2-(azepan-1-yl)-4-((3-methoxyphenyl)amino)pyrimido[4,5-d]pyridazin-5(6H)-one] was tested. Which IC50 did it give?
The IC50 was greater than 0.1 µM.

How did the IC50 turn out when COc1cccc(Nc2nc(N3CCC(CC#N)CC3)nc3cn[nH]c(=O)c23)c1 [Example 321, 2-(1-(4-((3-methoxyphenyl)amino)-5-oxo-5,6-dihydropyrimido[4,5-d]pyridazin-2-yl)piperidin-4-yl)acetonitrile] was run?
Its IC50 is greater than 0.1 µM.

How did the IC50 turn out when COc1cc(Nc2nc(N3CCC(CC#N)CC3)nc3cn[nH]c(=O)c23)cc(OC)c1OC [Example 326, 2-(1-(5-oxo-4-((3,4,5-trimethoxyphenyl)amino)-5,6-dihydropyrimido[4,5-d]pyridazin-2-yl)piperidin-4-yl) acetonitrile] was run?
Its IC50 is greater than 0.1 µM.

With O=c1[nH]ncc2nc(N3CCCCCC3)nc(Nc3ccc4c(c3)OCO4)c12 [Example 327, 2-(azepan-1-yl)-4-(benzo[d][1,3]dioxol-5-ylamino)pyrimido[4,5-d]pyridazin-5(6H)-one] as the compound, how does the IC50 read?
Its IC50 is greater than 0.1 µM.

With N#CCC1CCN(c2nc(Nc3ccc4c(c3)OCO4)c3c(=O)[nH]ncc3n2)CC1 [Example 328, 2-(1-(4-(benzo[d][1,3]dioxol-5-ylamino)-5-oxo-5,6-dihydropyrimido[4,5-d]pyridazin-2-yl)piperidin-4-yl) acetonitrile] as the compound, how does the IC50 read?
The IC50 was greater than 0.1 µM.

N#CCC1CCN(c2nc(Nc3ccc(N4CCC(O)CC4)cc3)c3c(=O)n(COP(=O)(O)O)ncc3n2)CC1 [Example 330, sodium (2-(4-(cyanomethyl)piperidin-1-yl)-4-((4-(4-hydroxypiperidin-1-yl)phenyl)amino)-5-oxopyrimido[4,5-d]pyridazin-6(5H)-yl)methyl phosphate] was tested. Which IC50 did it give?
Its IC50 is greater than 0.1 µM.

N#CCC1CCN(c2nc(Nc3ccc(CO)cc3)c3c(=O)[nH]ncc3n2)CC1 [Example 332, 2-(1-(4-((4-(hydroxymethyl)phenyl)amino)-5-oxo-5,6-dihydropyrimido[4,5-d]pyridazin-2-yl)piperidin-4-yl) acetonitrile] was tested. Which IC50 did it give?
The IC50 was less than 0.1 µM.

How did the IC50 turn out when CS(=O)(=O)c1ccc(Nc2nc(N3CCC(CC#N)CC3)nc3cn[nH]c(=O)c23)cc1 [Example 333, 2-(1-(4-((4-(methylsulfonyl)phenyl)amino)-5-oxo-5,6-dihydropyrimido[4,5-d]pyridazin-2-yl)piperidin-4-yl) acetonitrile] was run?
Its IC50 is greater than 0.1 µM.

biological target: JAK2 (Homo sapiens (Human), UniProt O60674); assay: Inhibition of enzymatic JAK2 kinase activity (TR-FRET); assay type: biochemical; conditions: read-out: IC50 JAK
From the text: The objective of this assay was to screen compounds in a Time-resolved fluorescence resonance energy transfer (TR-FRET) Enzymatic assay method for their potential to inhibit JAK2 (Janus kinase) activity.
TR-FRET assays are homogeneous proximity assays where Eu-labeled antiphosphotyrosine antibody binds to the phosphorylated substrates labeled with Ulight fluorescence acceptor. Eu can transfer energy to Ulight accepter in the complex and the interaction of two dye-labeled binding partners is detected by the energy transfer between a donor and an acceptor dye, and the subsequent light emission by the acceptor dye. The intensity of the light emission is proportional to the level of Ulight peptide phosphorylation.
Two μL of 10% DMSO in blank, substrate control and positive control wells and 2 μL of test compound in test wells was added. Thirteen μL of assay buffer in blank and substrate control wells and 13 μL of Enzyme buffer mix in positive and test wells was added. The reaction mixture was incubated for 30 minutes at RT on a plate shaker. Ultra Light-pGT substrate (5 μL) [poly Glu-Tyr (4:1) labeled with U Light TM dye, a tyrosine kinase substrate] and ATP mix was added to all wells. The reaction plate was incubated for 60 minutes at RT on a plate shaker. The reaction was stopped by adding 40 mM EDTA (10 μL) in buffer. Ten μL of antibody was added to all the wells. The plate was read in a Wallac® 1420 Multilabel Counter Victor 3 instrument (Ex: 340 nm Em: 615 & 665 nm) The following calculations were made:
F@ 665 Value-Buffer blank
F@ 615 Value-Buffer blank
Ratio of F@665/F@615-Substrate Blank
% Activity=(Test Sample/Positive control)*100%
Inhibition=(100−% Activity)

Sequence of JAK2 (O60674 808-1132): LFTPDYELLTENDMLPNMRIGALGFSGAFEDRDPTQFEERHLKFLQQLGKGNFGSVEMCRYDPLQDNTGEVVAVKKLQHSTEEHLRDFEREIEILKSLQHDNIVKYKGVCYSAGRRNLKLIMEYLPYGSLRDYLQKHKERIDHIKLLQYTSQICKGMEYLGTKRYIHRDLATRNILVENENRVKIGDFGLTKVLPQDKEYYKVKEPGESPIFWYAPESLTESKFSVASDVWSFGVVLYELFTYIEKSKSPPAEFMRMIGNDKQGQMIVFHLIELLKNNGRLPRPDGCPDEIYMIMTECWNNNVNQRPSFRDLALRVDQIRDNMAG

COC(=O)c1ccc(-c2nc(Nc3ccc(CN4CCNCC4)cc3)c3c(=O)[nH]ncc3n2)cc1 [Example 2, Methyl 4-(5-oxo-4-(4-(piperazin-1-ylmethyl)phenylamino)-5,6-dihydropyrimido[4,5-d]pyridazin-2-yl)benzoate hydrochloride] was tested. Which IC50 did it give?
The IC50 was greater than 0.1 µM.

For O=c1[nH]ncc2nc(N3CCOCC3)nc(Nc3ccc(CN4CCNCC4)cc3)c12 [Example 3, 2-morpholino-4-(4-(piperazin-1-ylmethyl)phenylamino)pyrimido[4,5-d]pyridazin-5(6H)-one hydrochloride], which IC50 is on record?
Its IC50 is less than 0.1 µM.

How did the IC50 turn out when O=c1[nH]ncc2nc(-c3ccccc3)nc(Nc3ccc(CN4CCOCC4)cc3)c12 [Example 4, 4-(4-(morpholinomethyl)phenylamino)-2-phenylpyrimido[4,5-d]pyridazin-5(6H)-one] was run?
Its IC50 is less than 0.05 µM.

How did the IC50 turn out when O=C(O)CN1CCN(c2ccc(Nc3nc(-c4ccccc4)nc4cn[nH]c(=O)c34)cc2)CC1 [Example 12, 2-(4-(4-(5-oxo-2-phenyl-5,6-dihydropyrimido[4,5-d]pyridazin-4-ylamino)phenyl)piperazin-1-yl) acetic acid] was run?
Its IC50 is less than 0.01 µM.

Which IC50 does the source give for O=c1[nH]ncc2nc(N3CCC4(CC3)CC4)nc(Nc3ccc(N4CCOCC4)cc3)c12 [Example 18, 4-(4-morpholinophenylamino)-2-(6-azaspiro[2.5]octan-6-yl)pyrimido[4,5-d]pyridazin-5(6H)-one] here?
Its IC50 is less than 0.05 µM.

— patent US10183944B2 (Asana Biosciences, LLC, priority 2011, dated 2019)
